Experimental data from US5270334A, “4-methoxy-5-methyl-pyran-3-ol natural products and derivatives thereof” (E. R. Squibb & Sons, Inc., priority 1992, dated 1993).
pIC50: −log10 of the molar value.

How the values were obtained:
[1] = test system: cytochrome P450 enzymes, such as lanosterol demethylase; assay: inhibition of cytochrome P450 enzymes (general statement); format: biochemical; conditions: in words
lanosterol demethylase = biological target: T1, lanosterol demethylase (Candida albicans, UniProt P10613); assay: inhibition of lanosterol demethylase, spectrophotometric carbon monoxide binding assay; conditions: Candida albicans SGY677; read-out: concentration which gives 50% inhibition of carbon monoxide binding
T1 construct: endogenous in cells; host or cells: Candida albicans SGY677
T1 sequence (P10613 whole entry): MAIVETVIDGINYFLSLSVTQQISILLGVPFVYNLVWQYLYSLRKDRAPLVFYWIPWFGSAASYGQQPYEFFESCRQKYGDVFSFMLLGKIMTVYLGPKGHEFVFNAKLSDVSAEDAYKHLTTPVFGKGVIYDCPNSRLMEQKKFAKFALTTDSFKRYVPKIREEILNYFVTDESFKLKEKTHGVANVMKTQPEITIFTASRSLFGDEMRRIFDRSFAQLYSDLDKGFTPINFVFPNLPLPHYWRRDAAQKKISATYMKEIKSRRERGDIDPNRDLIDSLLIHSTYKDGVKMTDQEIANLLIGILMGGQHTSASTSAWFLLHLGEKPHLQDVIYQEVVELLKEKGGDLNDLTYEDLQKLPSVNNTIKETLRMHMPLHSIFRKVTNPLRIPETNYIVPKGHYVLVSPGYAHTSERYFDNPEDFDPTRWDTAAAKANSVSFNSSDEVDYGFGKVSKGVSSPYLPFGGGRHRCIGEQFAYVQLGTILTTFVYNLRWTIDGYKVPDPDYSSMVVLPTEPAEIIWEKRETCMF
Description: (§1) The inhibition of lanosterol demethylase was determined by two methods: the spectrophotometric carbon monoxide binding assay of Omura and Sato (J. Biol. Chem. 239:2370-2378, 1964) and by a radiolabeled metabolic assay.
Cells of Candida albicans, SGY677, were grown overnight without shaking at 30° C. in a medium consisting of yeast extract 1%, peptone 2%, glucose 2% and distilled water. Cells were harvested by centrifugation and resuspended in 0.65M mannitol to an optical density at 600 nm of 2.5. At this density 1 ml of cells was equal to 6.7 mg constant dry weight (105° C. for 18 hours).
Scopularin and its alcohol derivative of Example 4 were added to the enzyme and the inhibition of carbon monoxide binding determined over a range of inhibitor concentrations.

[2] = biological target: T2, lanosterol demethylase of Candida albicans (Candida albicans, UniProt P10613); assay: inhibition of lanosterol demethylase, radiolabeled metabolic assay (14C-acetate, lanosterol accumulation); format: cell-based; conditions: Candida albicans SC5314, 14C-acetate, 30°
T2 construct: 14C-acetate sterol labelling, TLC
T2 sequence (P10613 whole entry): as above
Description: as §1
The ability of scopularin and its alcohol to inhibit the lanosterol demethylase of Candida albicans can also be visualized by a metabolic assay. Candida albicans, SC5314, was grown overnight at 30° with shaking in the same medium as that used above. Cells were harvested by centrifugation and resuspended in water to give an optical density of 0.3 at 660 nm. 750 μl of this cell suspension, 300 μl of a medium containing 0.35 g Difco yeast nitrogen base without amino acids, 1 g glucose and distilled water to 10 ml, 100 μl of test material and distilled water were combined to give a final volume of 1.425 ml. This was incubated for 15 minutes at 30° C. with shaking, then 3 μCi ^14 C-acetate was added and continued to incubate for 1 hour. Cells were harvested by centrifugation and extracted with 2×0.5 ml methanol; centrifuged, decanted supernate and repeated the extraction with […] methanol-benzene (1:1). Centrifuged, decanted; combined supernates, dried and resuspended in 100 μl chloroform-methanol (1:1). The aliquots were spotted onto silica gel 60 (Merck) plates and developed chromatographically in a solvent containing dichloromethane-acetone (60:1). […]

yeasts and fungi = assay: activity against a variety of yeasts and fungi (general statement); format: cell-based; conditions: in words

| Compound | inhibition of cytochrome P450 enzymes, such as lanosterol demethylase [1] | pIC50 (lanosterol demethylase) | concentration causing accumulation of lanosterol, consistent with inhibition of lanosterol demethylase [2] | activity against a variety of yeasts and fungi (yeasts and fungi) |
| --- | --- | --- | --- | --- |
| CCC/C=C/C=C/C=C(\C)[C@H]1OC[C@@H](C)[C@@H](OC)[C@@H]1O (relative stereo) [Example 4] | inhibitor | 4.85 | 1.4×10^-6 |  |
| C/C=C/C=C/C=C(\C)[C@@H]1OC[C@H](C)[C@H](OC)[C@H]1OC(=O)CN[C@@H]1O[C@H](CO)[C@@H](O)[C@H](O)[C@H]1O [Ic] | inhibit |  |  | has activity |
